Reference: US20070225333A1, “3-Heterocyclyl-4-Phenyl-Triazole Derivatives as Inhibitors of the Vasopressin Via Receptor” (priority 2004, published 2007)

Target: T1, human V1A receptor (Homo sapiens, UniProt P37288)
T1 construct: expressed in transfected cells; host or cells: CHO cells (CHO-hV1A line provided by Marc Thibonnier, Case Western Reserve University)
Experiment: V1A filter binding assay ([3H]-AVP binding to CHO-hV1A membranes)
Conditions: Ki by Cheng-Prusoff
Description: 1.0 V1A Filter Binding Assay
Receptor binding assays were performed on cellular membranes prepared from CHO cells stably expressing the human V1A receptor, (CHO-hV1A). The CHO-hV1A cell line was kindly provided under a licensing agreement by Marc Thibonnier, Dept. of Medicine, Case Western Reserve University School of Medicine, Cleveland, Ohio. CHO-hV1A cells were routinely maintained at 37° C. in humidified atmosphere with 5% CO2 in DMEM/Hams F12 nutrient mix supplemented with 10 % fetal bovine serum, 2 mM L-glutamine, 15 mM HEPES and 400 μg/ml G418. For bulk production of cell pellets, adherent CHO-hV1A cells were grown to confluency of 90-100% in 850 cm^2 roller bottles containing a medium of DMEM/Hams F12 Nutrient Mix supplemented with 10% fetal bovine serum, 2 mM L-glutamine and 15 mM HEPES. Confluent CHO-hV1A cells were washed with phosphate-buffered saline (PBS), harvested into ice cold PBS and centrifuged at 1,000 rpm. Cell pellets were stored at −80° C. until use. Cell pellets were thawed on ice and homogenised in membrane preparation buffer consisting of 50 mM Tris-HCl, pH 7.4, 5 mM MgCl2 and supplemented with a protease inhibitor cocktail, (Roche). The cell homogenate was centrifuged at 1000 rpm, 10 min, 4° C. and the supernatant was removed and stored on ice. The remaining pellet was homogenised and centrifuged as before. The supernatants were pooled and centrifuged at 25,000× g for 30 min at 4° C. The pellet was resuspended in freezing buffer consisting of 50 mM Tris-HCl, pH 7.4, 5 mM MgCl2 and 20% glycerol and stored in small aliquots at −80° C. until use. Protein concentration was determined using Bradford reagent and BSA as a standard.
Protein linearity followed by saturation binding studies were performed on each new batch of membrane. Membrane concentration was chosen that gave specific binding on the linear portion of the curve. Saturation binding studies were then performed using various concentrations of [^3H]-arginine vasopressin, [^3H]-AVP (0.05 nM-100 nM) and the Kd and Bmax determined.
Compounds were tested for their effects on [^3H]-AVP binding to CHO-hV1A membranes, (^3H-AVP; specific activity 65.5 Ci/mmol; NEN Life Sciences). Compounds were solubilised in dimethylsulfoxide (DMSO) and diluted to working concentration of 10% DMSO with assay buffer containing 50 mM Tris-HCL pH 7.4, 5 mM MgCl2 and 0.05% BSA. […] The binding reaction was initiated by the addition of 200 μl membrane and the plates were gently shaken for 60 min at room temperature. The reaction was terminated by rapid filtration using a Filtermate Cell Harvester (Packard Instruments) through a 96-well GF/B UniFilter Plate which had been pre-soaked in 0.5% polyethyleneimine to prevent peptide sticking. The filters were washed three times with 1 ml ice cold wash buffer containing 50 mM Tris-HCL pH 7.4 and 5 mM MgCl2. The plates were dried and 50 μl Microscint-0 (Packard instruments) was added to each well. The plates were sealed and counted on a TopCount Microplate Scintillation Counter (Packard Instruments). Non-specific binding (NSB) was determined using 1 μM unlabelled d(CH2)5Tyr(Me)AVP ([β-mercapto-β,β-cyclopentamethylenepropionyl,0-Me-Tyr^2,Arg^8]-vasopressin) (βMCPVP), (Sigma). The radioligand binding data was analysed using a four parameter logistic equation with the min forced to 0%. The slope was free fitted and fell between −0.75 and −1.25 for valid curves. Specific binding was calculated by subtracting the mean NSB cpm from the mean Total cpm. For test compounds the amount of ligand bound to the receptor was expressed as % bound=(sample cpm−mean NSB cpm)/specific binding cpm ×100. The % bound was plotted against the concentration of test compound and a sigmoidal curve was fitted. The inhibitory dissociation constant (Ki) was calculated using the Cheng-Prusoff equation: Ki=IC50/(1+[L]/Kd) where [L] is the concentration of ligand present in the well and Kd is the dissociation constant of the radioligand obtained from Scatchard plot analysis. […]

T1 sequence (P37288 whole entry): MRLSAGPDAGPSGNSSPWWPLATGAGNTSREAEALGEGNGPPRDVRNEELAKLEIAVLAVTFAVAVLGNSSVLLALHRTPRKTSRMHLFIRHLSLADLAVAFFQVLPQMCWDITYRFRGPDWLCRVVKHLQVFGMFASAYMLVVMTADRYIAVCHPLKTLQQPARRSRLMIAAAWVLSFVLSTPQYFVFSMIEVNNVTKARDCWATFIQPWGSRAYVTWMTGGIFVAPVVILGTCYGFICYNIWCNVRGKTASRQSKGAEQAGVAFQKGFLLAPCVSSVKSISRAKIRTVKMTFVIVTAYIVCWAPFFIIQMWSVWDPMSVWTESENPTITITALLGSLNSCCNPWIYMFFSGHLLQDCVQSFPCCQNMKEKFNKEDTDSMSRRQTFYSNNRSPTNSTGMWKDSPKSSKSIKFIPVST

Structure (SMILES) | Ki [nM]
CCOCc1nnc(N2CCC(Oc3ncccn3)CC2)n1-c1ccc(Cl)cc1 [Example 38] | 0.96
Cc1nnc(N2CCC(N(C)c3ncccn3)CC2)n1-c1ccc(Cl)cc1 [Example 41, N-{1-[4-(4-Chlorophenyl)-5-methyl-4H-1,2,4-triazol-3-yl]-piperidin-4-yl}-N-methylpyrimidin-2-amine] | 1.49
Clc1ccc(-n2c(Cn3nccn3)nnc2N2CCC(Oc3ncccn3)CC2)cc1 [Example 34, 2-{1-[4-(4-Chloro-phenyl)-5-[1,2,3]triazole-2-ylmethyl-4H-[1,2,4]triazole-3-yl]-piperidin-4-yloxy}-pyrimidine] | 1.06
Cc1nnc(N2CCC(Oc3ccccc3)CC2)n1-c1ccc(Cl)cc1 [Example 26, 1-[4-(4-Chloro-phenyl)-5-methyl-4H-[1,2,4]triazole-3-yl]-4-phenoxy-piperidine] | 3.19
Cc1nnc(N2CCC(N(C)c3ccccn3)CC2)n1-c1ccc(Cl)cc1 [Example 40, N-{1-[4-(4-Chlorophenyl)-5-methyl-4H-1,2,4-triazol-3-yl]-piperidin-4-yl}-N-methylpyridin-2-amine] | 0.5
COCc1nnc(N2CCC(Oc3ccccn3)CC2)n1-c1ccc(Cl)cc1 [Example 33, 2-({1-[4-(4-Chlorophenyl)-5-(methoxymethyl)-4H-1,2,4-triazol-3-yl]piperidin-4-yl}oxy)pyridine] | 1.28
